According to ChEMBL document CHEMBL1141026, “Synthesis, in vitro antitrypanosomal and antibacterial activity of phenoxy, phenylthio or benzyloxy substituted quinolones” (Bioorg Med Chem Lett, 2009):
In brackets after ≈: the same amount, converted by molar mass. Values belong to the compound of their own block, whether it stands above or below them.

Legend:
Trypanosoma cruzi [1] = assay: Antitrypanosomal activity against trypomastigotes of Trypanosoma cruzi Tulahuen C2C4 containing lacZ gene in rat L6 cells after 4 days; type: functional, organism-based; settings: L6, 96 h
Trypanosoma cruzi [2] = assay: Antitrypanosomal activity against Trypanosoma cruzi DM28 epimastigotes at 200 ug/ml after 96 hrs; type: functional
Enterococcus faecalis = assay: Antibacterial activity against Enterococcus faecalis after 24 hrs by agar dilution method; type: functional
Morganella morganii = assay: Antibacterial activity against Morganella morganii after 24 hrs by agar dilution method; type: functional
Salmonella typhimurium = assay: Antibacterial activity against Salmonella Typhimurium after 24 hrs by agar dilution method; type: functional, Salmonella enterica subsp. enterica serovar Typhimurium; settings: Salmonella enterica
Klebsiella pneumoniae = assay: Antibacterial activity against Klebsiella pneumoniae after 24 hrs by agar dilution method; type: functional
Serratia marcescens = assay: Antibacterial activity against Serratia marcescens after 24 hrs by agar dilution method; type: functional
Shigella sonnei = assay: Antibacterial activity against Shigella sonnei after 24 hrs by agar dilution method; type: functional
Streptococcus pneumoniae = assay: Antibacterial activity against Streptococcus pneumoniae after 24 hrs by agar dilution method; type: functional
[3] = tested on: Salmonella enterica subsp. enterica; assay: Antibacterial activity against Salmonella enteritidis after 24 hrs by agar dilution method; type: functional, Salmonella enterica subsp. enterica serovar Enteritidis
Shigella boydii = assay: Antibacterial activity against Shigella boydii after 24 hrs by agar dilution method; type: functional
[4] = tested on: Staphylococcus epidermidis; assay: Antibacterial activity against Staphylococcus epidermidis after 24 hrs by agar dilution method; type: functional
Shigella flexneri = assay: Antibacterial activity against Shigella flexneri after 24 hrs by agar dilution method; type: functional
Aeromonas hydrophila = assay: Antibacterial activity against Aeromonas hydrophila after 24 hrs by agar dilution method; type: functional
Pseudomonas aeruginosa = assay: Antibacterial activity against Pseudomonas aeruginosa after 24 hrs by agar dilution method; type: functional
Proteus mirabilis = assay: Antibacterial activity against Proteus mirabilis after 24 hrs by agar dilution method; type: functional
Staphylococcus = assay: Antibacterial activity against Staphylococcus albus after 24 hrs by agar dilution method; type: functional
Streptococcus = assay: Antibacterial activity against gamma-streptococcus after 24 hrs by agar dilution method; type: functional
Proteus vulgaris = assay: Antibacterial activity against Proteus vulgaris after 24 hrs by agar dilution method; type: functional
Escherichia coli = assay: Antibacterial activity against Escherichia coli after 24 hrs by agar dilution method; type: functional
Citrobacter freundii = assay: Antibacterial activity against Citrobacter freundii after 24 hrs by agar dilution method; type: functional
Staphylococcus aureus = assay: Antibacterial activity against Staphylococcus aureus after 24 hrs by agar dilution method; type: functional

SMILES: CCn1cc(C(N)=O)c(=O)c2cc(F)c(Oc3ccccc3)c(Oc3ccccc3)c21
IC50 (Trypanosoma cruzi [1]): 4 µg/mL (≈ 9.56 µM)

SMILES: CCn1cc(C(=O)O)c(=O)c2ccc(C)nc21 [NALIDIXIC ACID]
Activity (Trypanosoma cruzi [2]): 60%

SMILES: O=C(O)c1cn(C2CC2)c2c(F)c(Oc3ccccc3)c(F)cc2c1=O
MIC (Enterococcus faecalis): 12.5 µg/mL (≈ 35 µM) | MIC (Morganella morganii): 3.13 µg/mL (≈ 8.76 µM) | MIC (Salmonella typhimurium): 3.13 µg/mL (≈ 8.76 µM) | MIC (Klebsiella pneumoniae): 1.56 µg/mL (≈ 4.37 µM) | MIC (Serratia marcescens): 12.5 µg/mL (≈ 35 µM) | MIC (Shigella sonnei): 1.56 µg/mL (≈ 4.37 µM) | IC50 (Trypanosoma cruzi [1]): > 90 µg/mL | MIC (Streptococcus pneumoniae): 0.098 µg/mL (≈ 0.274 µM) | MIC [3]: 3.13 µg/mL (≈ 8.76 µM) | MIC (Shigella boydii): 1.56 µg/mL (≈ 4.37 µM) | MIC [4]: 1.56 µg/mL (≈ 4.37 µM) | MIC (Shigella flexneri): > 25 µg/mL | MIC (Aeromonas hydrophila): 6.25 µg/mL (≈ 17.5 µM) | MIC (Pseudomonas aeruginosa): 12.5 µg/mL (≈ 35 µM) | MIC (Proteus mirabilis): 6.25 µg/mL (≈ 17.5 µM) | MIC (Staphylococcus): 1.56 µg/mL (≈ 4.37 µM) | MIC (Streptococcus): > 25 µg/mL | MIC (Proteus vulgaris): 6.25 µg/mL (≈ 17.5 µM) | MIC (Escherichia coli): 3.13 µg/mL (≈ 8.76 µM) | MIC (Citrobacter freundii): 1.56 µg/mL (≈ 4.37 µM) | MIC (Staphylococcus aureus): 0.39 µg/mL (≈ 1.09 µM)

SMILES: CCOC(=O)c1cn(CC)c2c(Oc3ccccc3)c(Oc3ccccc3)c(F)cc2c1=O
IC50 (Trypanosoma cruzi [1]): 1.7 µg/mL (≈ 3.8 µM)

SMILES: O=C(Cn1ccnc1[N+](=O)[O-])NCc1ccccc1 [BENZNIDAZOLE]
IC50 (Trypanosoma cruzi [1]): 0.83 µg/mL (≈ 3.19 µM)

SMILES: CCn1cc(C(=O)O)c(=O)c2cc(F)c(Sc3ccccc3)c(Sc3ccccc3)c21
IC50 (Trypanosoma cruzi [1]): 19.3 µg/mL (≈ 42.7 µM)

SMILES: CCn1cc(C(=O)O)c(=O)c2cc(F)c(OCc3ccccc3)c(F)c21
MIC (Enterococcus faecalis): > 25 µg/mL | MIC (Morganella morganii): > 25 µg/mL | MIC (Salmonella typhimurium): 25 µg/mL (≈ 69.6 µM) | MIC (Klebsiella pneumoniae): 6.25 µg/mL (≈ 17.4 µM) | MIC (Serratia marcescens): > 25 µg/mL | MIC (Shigella sonnei): 12.5 µg/mL (≈ 34.8 µM) | IC50 (Trypanosoma cruzi [1]): 18.3 µg/mL (≈ 50.9 µM) | MIC (Streptococcus pneumoniae): 1.56 µg/mL (≈ 4.34 µM) | MIC [3]: > 25 µg/mL | MIC (Shigella boydii): 25 µg/mL (≈ 69.6 µM) | MIC [4]: 25 µg/mL (≈ 69.6 µM) | MIC (Shigella flexneri): > 25 µg/mL | MIC (Aeromonas hydrophila): > 25 µg/mL | MIC (Pseudomonas aeruginosa): > 25 µg/mL | MIC (Proteus mirabilis): > 25 µg/mL | MIC (Staphylococcus): > 25 µg/mL | MIC (Streptococcus): > 25 µg/mL | MIC (Proteus vulgaris): > 25 µg/mL | MIC (Escherichia coli): > 25 µg/mL | MIC (Citrobacter freundii): 25 µg/mL (≈ 69.6 µM) | MIC (Staphylococcus aureus): 6.25 µg/mL (≈ 17.4 µM)

SMILES: CCn1cc(C#N)c(=O)c2cc(F)c(Oc3ccccc3)c(Oc3ccccc3)c21
IC50 (Trypanosoma cruzi [1]): > 90 µg/mL

SMILES: CCn1cc(C(=O)O)c(=O)c2cc(F)c(Oc3ccc(O)cc3)c(Oc3ccc(O)cc3)c21
IC50 (Trypanosoma cruzi [1]): 57.1 µg/mL (≈ 126 µM)

SMILES: CCn1cc(C(=O)O)c(=O)c2cc(Oc3ccc(C)cc3)c(Oc3ccc(C)cc3)c(Oc3ccc(C)cc3)c21
IC50 (Trypanosoma cruzi [1]): > 90 µg/mL

The next lines start with the values.

IC50 (Trypanosoma cruzi [1]): 2.4 µg/mL (≈ 5.15 µM)
SMILES: CCn1cc(C(=O)OC)c(=O)c2cc(F)c(Sc3ccccc3)c(Sc3ccccc3)c21

IC50 (Trypanosoma cruzi [1]): 3.8 µg/mL (≈ 8.23 µM)
SMILES: CCn1cc(C(=O)OC)c(=O)c2cc(F)c(OCc3ccccc3)c(OCc3ccccc3)c21

IC50 (Trypanosoma cruzi [1]): 39.9 µg/mL (≈ 73.7 µM)
SMILES: CCn1cc(C(=O)O)c(=O)c2cc(Sc3ccccc3)c(Sc3ccccc3)c(Sc3ccccc3)c21

IC50 (Trypanosoma cruzi [1]): 2.5 µg/mL (≈ 4.67 µM)
SMILES: CCn1cc(C(=O)O)c(=O)c2cc(OCc3ccccc3)c(OCc3ccccc3)c(OCc3ccccc3)c21

IC50 (Trypanosoma cruzi [1]): > 90 µg/mL
SMILES: CCn1cc(C(=O)O)c(=O)c2cc(F)c(Oc3ccccc3)c(Oc3ccccc3)c21

IC50 (Trypanosoma cruzi [1]): 12.7 µg/mL (≈ 22.8 µM)
SMILES: CCn1cc(C(=O)O)c(=O)c2cc(F)c(Oc3ccc(Cl)cc3Cl)c(Oc3ccc(Cl)cc3Cl)c21
